One test concerns the target Bcl-xL (Homo sapiens, UniProt Q07817). Kind of test: Time Resolved-Fluorescence Resonance Energy Transfer (TR-FRET) binding assay, competition with probe F-Bak. The method, boiled down:
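TR-FRET binding assay run at room temperature for 2 h after mixing compound with Bcl-xL protein, F-Bak probe and Tb-labelled antibody. Test compounds diluted from a 2× 50 μM stock. Ki values derived via Wang's equation from 520/495 nm emission under 340 nm excitation, in the absence of serum or with 1% HS.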
(Time-resolved FRET reads energy transfer from a long-lived donor to a nearby acceptor.)

The test system of test [1] is Molt-4 human acute lymphoblastic leukemia cells. The experiment in a line: Molt-4 cell viability assay (CellTiter-Glo, 48 hours, 10% HS). The test is classed as cell-based. Particulars: non-permeabilized cells. The method, boiled down:
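Cells were seeded at 12,500 per well in medium with 10% human serum and exposed to a 3-fold compound dilution series from 10 μM to 0.0005 μM. After 48 h, viable cells were quantified by CellTiter-Glo luminescence. Each concentration was run in duplicate on at least 3 occasions.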
(In ATP-based viability assays light output follows the ATP content of the culture.)

In test [2] the test system is permeabilized Bcl-xL dependent Molt-4 cells. The experiment in a line: Cytochrome C release in selectively (digitonin) permeabilized Molt-4 cells. The test is classed as cell-based, human. Particulars: 4 h treatment, read-out: Molt-4 Permeabilized Cyt C Release. The text has this: The permeabilization of the mitochondrial outer membrane to release proteins from the intermembrane space into the cytosol is a pivotal event in the process of apoptosis. Specifically, the release of cytochrome C triggers the formation of the apoptosome which, in turn, results in caspase activation and other events that will commit the cell to undergo programmed cell death (Goldstein el al., 2005, Cell Death and Differentiation 12:453). The process of mitochondrial outer membrane permeabilization (MOMP) is controlled by the Bcl-2 family members. It is promoted by the multidomain pro-apoptotic proteins Bax and Bak which, upon activation, oligomerize on the outer mitochondrial membrane and form pores to ultimately release cytochrome C. This action is antagonized by the antiapoptotic members, including Bcl-2 and Bcl-xL. Compounds that are capable of inhibiting Bcl-2 or Bcl-xL, for example, in cells that depend upon these proteins for survival, can cause activation of Bax and or Bak, MOMP, release of cytochrome C and the mentioned downstream steps in the apoptotic process. This process of cytochrome C release can be measured in cells via Western blot of both mitochrondrial and cytosolic fractions, and can be used a proxy measurement of apoptosis in cells.
As a means of detecting the ability of a Bcl-xL inhibitor with low cell-permeability to cause release of cytochrome C, the cells can be treated with an agent that causes selective pore formation in the plasma membrane, but not the mitochondrial membrane. Specifically, the cholesterol/phospholipid ratio is much higher in the plasma membrane than the mitochondrial membrane. […] This agent forms insoluble complexes with cholesterol leading to the segregation of cholesterol from its normal phospholipid binding sites. This action, in turn, leads to the formation of holes about 40-50 Å wide in the lipid bilayer. Once the plasma membrane is permeabilized, cytosolic components able to pass over digitonin-formed holes can be washed out, including the cytochrome C that was released from mitochondria to cytosol in the apoptotic cells ((Campos, 2006, Cytometry A 69(6):515-523)).
To determine if Bcl-xL inhibitors were inducing cell death through apoptosis, cytochrome C release was measured in Bcl-xL dependent Molt-4 cells following treatment Specifically, 1×10^6 cells were treated for 4 h (37° C., 5% CO2) with the test compounds in half-log dilutions starting at 3.0 μM and ending at 0.01 μM. Cells were then processed as described in Chen et al., 2011, Mol. Cancer Ther. 10:2340-2350 (the Bcl-2/Bcl-X(L)/Bcl-w inhibitor, navitoclax, enhances the activity of chemotherapeutic agents in vitro and in vivo.).

[3] abbreviates: in the presence of 1% HS, read-out: Bcl-xL Binding Ki (nM, 1% HS).
The mark [4] stands for this setting: without HS, read-out: Bcl-xL Binding Ki.

This is an account of results in patent US20240058450A1, “BCL-XL Inhibitory Compounds Having Low Cell Permeability and Antibody Drug Conjugates Including the Same” (AbbVie Inc., priority 2014, published 2024).

Read-outs that look alike come from different tables or passages of the source.

Bcl-xL, sequence (Q07817 whole entry): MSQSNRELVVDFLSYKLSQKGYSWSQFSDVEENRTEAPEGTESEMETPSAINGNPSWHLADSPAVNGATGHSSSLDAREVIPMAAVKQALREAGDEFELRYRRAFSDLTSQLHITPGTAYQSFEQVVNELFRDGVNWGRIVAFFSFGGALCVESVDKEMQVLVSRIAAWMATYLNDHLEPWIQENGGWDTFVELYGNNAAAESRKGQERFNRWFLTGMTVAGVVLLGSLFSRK

Take `Cc1c(-c2ccc(N3CCc4cccc(C(=O)Nc5nc6ccccc6s5)c4C3)nc2C(=O)O)cnn1CC12CC3(C)CC(C)(C1)CC(OCCNCCC(=O)O)(C3)C2` [Example 1.25, 6-[8-(1,3-benzothiazol-2-ylcarbamoyl)-3,4-dihydroisoquinolin-2 (1H)-yl]-3-{1-[(3-{2-[(2-carboxyethyl)amino]ethoxy}-5,7-dimethyltricyclo[3.3.1.1^3,7]dec-1-yl)methyl]-5-methyl-1H-pyrazol-4-yl)pyridine-2-carboxylic acid]: the inhibition constant (Ki) is 0.083 nM on Bcl-xL (setting [3]) and under 0.001 nM at Bcl-xL (setting [4]). The EC50 was 430 nM in test [1] (Homo sapiens, MOLT-4, 48 h) and under 0.5 nM in test [2] (Homo sapiens, MOLT-4, 4 h).
As for `Cc1c(-c2ccc(N3CCc4cccc(C(=O)Nc5nc6ccccc6s5)c4C3)nc2C(=O)O)cnn1CC12CC3(C)CC(C)(C1)CC(OCCN(CCCP(=O)(O)O)C1CCNCC1)(C3)C2` [Example 1.26, 6-[8-(1,3-benzothiazol-2-ylcarbamoyl)-3,4-dihydroisoquinolin-2 (1H)-yl]-3-{1-[(3,5-dimethyl-7-{2-[(3-phosphonopropyl)(piperidin-4-yl)amino]ethoxy}tricyclo[3.3.1.1^3,7]dec-1-yl)methyl]-5-methyl-1H-pyrazol-4-yl}pyridine-2-carboxylic acid], the inhibition constant (Ki) is 0.11 nM at Bcl-xL (setting [3]) and under 0.001 nM on Bcl-xL (setting [4]). Besides, the EC50 in test [1] (Homo sapiens, MOLT-4, 48 h) is 2330 nM; in test [2] (Homo sapiens, MOLT-4, 4 h), under 0.5 nM.
As to `Cc1c(-c2ccc(N3CCc4cccc(C(=O)Nc5nc6ccccc6s5)c4C3)nc2C(=O)O)cnn1CC12CC3(C)CC(C)(C1)CC(OCCN(C)C(=O)[C@@H](N)CCCC[N+](C)(C)C)(C3)C2` [Example 1.29, N-[(5S)-5-amino-6-{[2-({3-[(4-{6-[8-(1,3-benzothiazol-2-ylcarbamoyl)-3,4-dihydroisoquinolin-2 (1H)-yl]-2-carboxypyridin-3-yl}-5-methyl-1H-pyrazol-1-yl)methyl]-5,7-dimethyltricyclo[3.3.1.1^3,7]dec-1-yl}oxy)ethyl](methyl)amino}-6-oxohexyl]-N,N-dimethylmethanaminium], the Ki was found to be 0.033 nM at Bcl-xL (setting [3]) and 0.009 nM on Bcl-xL (setting [4]). Moreover, the EC50 in test [1] was 935 nM; in test [2] it was under 0.5 nM.
`Cc1c(-c2ccc(N3CCc4cccc(C(=O)Nc5nc6ccccc6s5)c4C3)nc2C(=O)O)cnn1CC12CC3(C)CC(C)(C1)CC(OCCNC(=O)[C@H](CC(=O)O)NCCC(=O)O)(C3)C2` [Example 1.32, 6-[8-(1,3-benzothiazol-2-ylcarbamoyl)-3,4-dihydroisoquinolin-2 (1H)-yl]-3-(1-{[3-(2-{[N-(2-carboxyethyl)-L-alpha-aspartyl]amino}ethoxy)-5,7-dimethyltricyclo[3.3.1.1^3,7]dec-1-yl]methyl}-5-methyl-1H-pyrazol-4-yl}pyridine-2-carboxylic acid]: the Ki at Bcl-xL (setting [3]) was 0.28 nM; on Bcl-xL (setting [4]), under 0.001 nM. In addition, the EC50 in test [1] (Homo sapiens, MOLT-4, 48 h) is 708 nM; in test [2] (Homo sapiens, MOLT-4, 4 h), under 0.5 nM.
Take `Cc1c(-c2ccc(N3CCc4cccc(C(=O)Nc5nc6ccccc6s5)c4C3)nc2C(=O)O)cnn1CC12CC3(C)CC(C)(C1)CC(OCCN(CCNCCC(=O)O)CCS(=O)(=O)O)(C3)C2` [Example 1.38, 6-[8-(1,3-benzothiazol-2-ylcarbamoyl)-3,4-dihydroisoquinolin-2 (1H)-yl]-3-{1-[(3-{2-[{2-[(2-carboxyethyl)amino]ethyl}(2-sulfoethyl)amino]ethoxy}-5,7-dimethyltricyclo[3.3.1.1^3,7]dec-1-yl)methyl]-5-methyl-1H-pyrazol-4-yl}pyridine-2-carboxylic acid]: the inhibitory constant (Ki) at Bcl-xL (setting [3]) was 0.203 nM; on Bcl-xL (setting [4]), under 0.001 nM. Further, the EC50 in test [1] (Homo sapiens, MOLT-4, 48 h) was 245 nM; in test [2] (Homo sapiens, MOLT-4, 4 h), under 0.5 nM.
As to `Cc1c(-c2ccc(N3CCc4cccc(C(=O)Nc5nc6ncccc6s5)c4C3)nc2C(=O)O)cnn1CC12CC3(C)CC(C)(C1)CC(OCCNCCCP(=O)(O)O)(C3)C2` [Example 1.39, 3-{1-[(3,5-dimethyl-7-{2-[(3-phosphonopropyl)amino]ethoxy}tricyclo[3.3.1.1^3,7]dec-1-yl)methyl]-5-methyl-1H-pyrazol-4-yl}-6-[8-([1,3]thiazolo[4,5-b]pyridin-2-ylcarbamoyl)-3,4-dihydroisoquinolin-2 (1H)-yl]pyridine-2-carboxylic acid], the figures for the Ki at Bcl-xL (setting [3]) and on Bcl-xL (setting [4]) were 0.174 nM and 0.018 nM, respectively. The EC50 in test [1] (Homo sapiens, MOLT-4, 48 h) is 1590 nM; in test [2] (Homo sapiens, MOLT-4, 4 h) it was under 0.5 nM.
As for `Cc1c(-c2ccc(N3CCc4cccc(C(=O)Nc5nc6ccccc6s5)c4C3)nc2C(=O)O)cnn1CC12CC3(C)CC(C)(C1)CC(OCCN(CCS(=O)(=O)O)C(=O)[C@@H](N)CC(=O)O)(C3)C2` [Example 1.44, 3-{1-[(3-{2-[L-alpha-aspartyl(2-sulfoethyl)amino]ethoxy}-5,7-dimethyltricyclo[3.3.1.1^3,7]dec-1-yl)methyl]-5-methyl-1H-pyrazol-4-yl}-6-[8-(1,3-benzothiazol-2-ylcarbamoyl)-3,4-dihydroisoquinolin-2 (1H)-yl]pyridine-2-carboxylic acid], the figures for the Ki at Bcl-xL (setting [3]) and on Bcl-xL (setting [4]) were 0.282 nM and under 0.001 nM, respectively. The EC50 in test [1] (Homo sapiens, MOLT-4, 48 h) was 1260 nM; in test [2] (Homo sapiens, MOLT-4, 4 h) it was under 0.5 nM.
Consider `Cc1c(-c2ccc(N3CCc4c(OCCN)ccc(C(=O)Nc5nc6ccccc6s5)c4C3)nc2C(=O)O)cnn1CC12CC3(C)CC(C)(C1)CC(OCCN(C)CCS(=O)(=O)O)(C3)C2` [Example 1.46, 6-[5-(2-aminoethoxy)-8-(1,3-benzothiazol-2-ylcarbamoyl)-3,4-dihydroisoquinolin-2 (1H)-yl]-3-{1-[(3,5-dimethyl-7-{2-[methyl(2-sulfoethyl)amino]ethoxy}tricyclo[3.3.1.1^3,7]dec-1-yl)methyl]-5-methyl-1H-pyrazol-4-yl}pyridine-2-carboxylic acid], for which the Ki on Bcl-xL (setting [3]) was 0.00615 nM; at Bcl-xL (setting [4]), under 0.001 nM. In addition, the EC50 was 68 nM in test [1] (Homo sapiens, MOLT-4, 48 h) and under 0.5 nM in test [2] (Homo sapiens, MOLT-4, 4 h).
With `Cc1c(-c2ccc(N3CCc4c(OCCNCCS(=O)(=O)O)ccc(C(=O)Nc5nc6ccccc6s5)c4C3)nc2C(=O)O)cnn1CC12CC3(C)CC(C)(C1)CC(OCCN(C)CCS(=O)(=O)O)(C3)C2` [Example 1.47, 6-[8-(1,3-benzothiazol-2-ylcarbamoyl)-5-{2-[(2-sulfoethyl)amino]ethoxy}-3,4-dihydroisoquinolin-2 (1H)-yl]-3-{1-[(3,5-dimethyl-7-{2-[methyl(2-sulfoethyl)amino]ethoxy}tricyclo[3.3.1.1^3,7]dec-1-yl)methyl]-5-methyl-1H-pyrazol-4-yl}pyridine-2-carboxylic acid], the Ki was determined as 0.0294 nM at Bcl-xL (setting [3]) and 0.006 nM on Bcl-xL (setting [4]). Moreover, the EC50 was 197 nM in test [1] (Homo sapiens, MOLT-4, 48 h) and under 0.5 nM in test [2] (Homo sapiens, MOLT-4, 4 h).

Usually Ki stands for the equilibrium dissociation constant of an inhibitor or competing ligand from its target.
